# Experimental data as given in patent US20230089368A1, “POLYAROMATIC UREA DERIVATIVES AND THEIR USE IN THE TREATMENT OF MUSCLE DISEASES” (ANAGENESIS BIOTECHNOLOGIES S.A.S., priority 2019, published 2023).
# How the values were obtained:
# [1] = system: satellite-like cells (Pax7-positive cells) in hMP; assay: Myotube assay: Pax7-positive (satellite-like) cell quantification; type: cell-based, human; design: key to Pax7% (pool of Pax7-positive cells) / Pax7: −: Depletes the pool of cells, while positively affects the myotubes; +: Maintains or increases the pool of cells, with at least 1 of the highest concentration known to be cytotoxic; ++: Maintains or increases the pool of cells, without any toxicity; details: myotube assay, compounds incubated 3 days
# Source text: (§1) The efficacy of said compound for use in treating, ameliorating, delaying, curing and/or preventing a disease or condition associated with muscle cells and/or satellite cells is positively correlated with the generation of myotubes (i.e. the increase of the area occupied by myotubes on the assay) and/or satellite cells (i.e. the increase of the number of satellite cells) in the assay after adding said compound. The generation of myotubes by the addition of said compound is expressed as the EC50 value, the concentration of said compound that corresponds with the half-maximal generation of myotubes, and the MA (normalized myotube area) value, the normalized area occupied by generated myotubes on the assay. […] Since muscle cells are formed from myotubes during myogenesis, the generation of myotubes in the assay is a good indicator of the ability of said compound to induce the formation of functional muscle cells in vivo. The number of satellite cells is measured as the percentage of Pax7 positive cells, relative to the total number of cells in the assay, as shown in FIG. 3. The percentage of Pax7 is a good indicator of the ability of said compound to induce the formation of satellite cells which are able to play a role in muscle repair and regeneration in vivo.
# (§2) DMD human induced pluripotent stem cells (hereafter “DMD hiPSC”), generated from the NORM-1 hiPSC WT cell line by gene editing, or WT human induced pluripotent stem cells (hereafter “WT hiPSC”), being NORM-1 hiPSC wt cell line, have been differentiated according to Chal et al. 2015, 2016, to produce muscle progenitors (hereafter “hMP”). The hMP population contains satellite-like cells (i.e Pax7-positive cells) and satellite cells' progenies (i.e. Myogenin-positive cells).
# (§3) FIG. 1 provides an example of a Myotube assay workflow. At day 0, hMP are thawed and 3.1 million cells are plated into a T75-flask coated with hESC-qualified Matrigel™ (Corning) in SkGM proliferating medium (PromoCells), supplemented with 5 μM Y-27632 (Tocris Bioscience). On day 2, SkGM proliferating medium is refreshed. On day 4, hMP are harvested and transferred into a 384-well plate coated with collagen type I at a density of 3500 cells/well in a DMEM-based medium, containing 5% of knockout serum replacement (Gibco), 1% PenStrep (Gibco), 1% MEM NEAA (Gibco) and 0.1 mM 2-mercaptoethanol (Gibco) (hereafter “K5 medium”) and 5 μM Y-27632. Compounds to be tested are then added in the medium and incubated for 3 days at 37° C. On day 7, cells are fixed and immunostained. For example, myotubes (alpha-actinin staining) and satellite-like (Pax7 staining) cells can be analyzed for total myotube area per well or Pax7-positive cell quantification.
# (§4) DMD hMP were put in the Myotube assay according to the workflow described in Example 2.1. In particular, compound (i) was added at concentrations ranging from 1.5 nM to 30 μM, starting from day 4. hMP were cultivated for three more days in presence of compound (i), then fixed and analyzed for percentage of Pax7-positive cells and nuclei number. Duplicates of each condition were averaged.
# (−): Depletes the pool of cells, while positively affects the myotubes; (+): Maintains or increases the pool of cells, with at least 1 of the highest concentration known to be cytotoxic; and (++) Maintains or increases the pool of cells, without any toxicity.
# [2] = system: muscle progenitors (hMP) from DMD hiPSC or WT hiPSC; assay: Myotube assay: myogenic activity (total myotube area per well); type: cell-based, human; details: Homo sapiens, 72 h, myotube assay, compounds incubated 3 days; for Emax: read-out: MA (normalized Myotube Area, efficacy); for EC50: 10 points dose-response 1.5 nM to 30 μM, read-out: EC50 (myogenic activity, half-maximal generation of myotubes)
# Procedure: An in vitro assay for assessing the efficacy of compounds for use in treating, ameliorating, delaying, curing and/or preventing a disease or condition associated with muscle cells and/or satellite cells is described in example 78. Herein, the generation of myotubes and satellite cells after adding a compound to a myotube assay workflow is assessed. Said myotube assay workflow is derived from wild-type or DMD human induced pluripotent stem cells (WT hiPSC or DMD hiPSC). Before the addition of said compound, the assay comprises satellite-like cells, but no significant amount of myotubes.
# as §1, §2, §3
# as §4, with “quantification” for “percentage”, “total myotube area per well.” for “Pax7-positive cells and nuclei number.”
# Qualitative scale: ++++: EC50<500 nM; +++: 500 nM≤EC50<1000 nM; ++: 1000 nM≤EC50<5000 nM; +: EC50≥5000 nM; +++: MA≥75%; ++: 50%≤MA<75%; +: 25%≤MA<50%.
SMILES,Pax7% (pool of Pax7-positive cells) [1],Emax [2] [%],EC50 [2] [nM]
"CSc1cc(Oc2ccnc3[nH]c(=O)cnc23)ccc1NC(=O)Nc1cc(C(C)(C)C)nn1-c1ccccc1Cl [(at), 1-(3-(tert-butyl)-1-(2-chlorophenyl)-1H-pyrazol-5-yl)-3-(2-(methylthio)-4-((3-oxo-3,4-dihydropyrido[2,3-b]pyrazin-8-yl)oxy)phenyl)urea]",++,≥ 75,
"CSc1cc(Oc2ccnc3c2ncc(=O)n3C)ccc1NC(=O)Nc1cc(C(C)(C)C)nn1-c1ccccc1 [(au), 1-(3-(tert-butyl)-1-phenyl-1H-pyrazol-5-yl)-3-(4-((4-methyl-3-oxo-3,4-dihydropyrido[2,3-b]pyrazin-8-yl)oxy)-2-(methylthio)phenyl)urea]",++,≥ 75,
"COc1ccccc1-n1nc(C(C)(C)C)cc1NC(=O)Nc1ccc(Oc2ccnc3[nH]c(=O)cnc23)cc1SC [(av), 1-(3-(tert-butyl)-1-(2-methoxyphenyl)-1H-pyrazol-5-yl)-3-(2-(methylthio)-4-((3-oxo-3,4-dihydropyrido[2,3-b]pyrazin-8-yl)oxy)phenyl)urea]",++,≥ 75,≥ 5000
"COc1cccc(-n2nc(C(C)(C)C)cc2NC(=O)Nc2ccc(Oc3ccnc4[nH]c(=O)cnc34)cc2SC)c1 [(aw), 1-(3-(tert-butyl)-1-(3-methoxyphenyl)-1H-pyrazol-5-yl)-3-(2-(methylthio)-4-((3-oxo-3,4-dihydropyrido[2,3-b]pyrazin-8-yl)oxy)phenyl)urea]",+,≥ 75,
"CSc1cc(Oc2ccnc3[nH]c(=O)cnc23)ccc1NC(=O)Nc1nc(-c2ccc(F)c(F)c2)cs1 [(ax), 1-(4-(3,4-difluorophenyl)thiazol-2-yl)-3-(2-(methylthio)-4-((3-oxo-3,4-dihydropyrido[2,3-b]pyrazin-8-yl)oxy)phenyl)urea]",++,50 to 75,
"CSc1cc(Oc2ccnc3[nH]c(=O)cnc23)ccc1NC(=O)Nc1nnc(-c2ccccc2)s1 [(ay), 1-(2-(methylthio)-4-((3-oxo-3,4-dihydropyrido[2,3-b]pyrazin-8-yl)oxy)phenyl)-3-(5-phenyl-1,3,4-thiadiazol-2-yl)urea]",++,≥ 75,1000 to 5000
"Cc1ccc(-n2nc(C(C)(C)C)cc2NC(=O)Nc2ccc(Oc3ccnc4[nH]c(=O)cnc34)cc2C(F)(F)F)cc1 [(az), 1-(3-(tert-butyl)-1-(p-tolyl)-1H-pyrazol-5-yl)-3-(4-((3-oxo-3,4-dihydropyrido[2,3-b]pyrazin-8-yl)oxy)-2-(trifluoromethyl)phenyl)urea]",++,≥ 75,
"CC(C)c1cc(NC(=O)Nc2ccc(Oc3ccnc4[nH]c(=O)cnc34)cc2F)n(-c2ccccc2)n1 [(b), 1-(2-fluoro-4-((3-oxo-3,4-dihydropyrido[2,3-b]pyrazin-8-yl)oxy)phenyl)-3-(3-isopropyl-1-phenyl-1H-pyrazol-5-yl)urea]",++,25 to 50,
"CC(C)(C)c1cnc(NC(=O)Nc2ccc(Oc3ccnc4[nH]c(=O)cnc34)c3ccccc23)s1 [(ba), 1-(5-(tert-butyl)thiazol-2-yl)-3-(4-((3-oxo-3,4-dihydropyrido[2,3-b]pyrazin-8-yl)oxy)naphthalen-1-yl)urea]",++,≥ 75,
"CC(C)(C)c1cc(NC(=O)Nc2ccc(Oc3ccnc4[nH]c(=O)cnc34)c3ccccc23)n(-c2ccc3ncccc3c2)n1 [(bb), 1-(3-(tert-butyl)-1-(quinolin-6-yl)-1H-pyrazol-5-yl)-3-(4-((3-oxo-3,4-dihydropyrido[2,3-b]pyrazin-8-yl)oxy)naphthalen-1-yl)urea]",+,≥ 75,
"COc1cc(Oc2ccnc3[nH]c(=O)cnc23)ccc1NC(=O)Nc1cc(C(C)(C)C)nn1-c1ccccc1 [(bc), 1-(3-(tert-butyl)-1-phenyl-1H-pyrazol-5-yl)-3-(2-methoxy-4-((3-oxo-3,4-dihydropyrido[2,3-b]pyrazin-8-yl)oxy)phenyl)urea]",++,≥ 75,1000 to 5000
"CSc1cc(Oc2ccnc3[nH]c(=O)cnc23)ccc1NC(=O)Nc1cc(C(C)(C)C)nn1-c1ccc(C)nc1 [(bd), 1-(3-(tert-butyl)-1-(6-methylpyridin-3-yl)-1H-pyrazol-5-yl)-3-(2-(methylthio)-4-((3-oxo-3,4-dihydropyrido[2,3-b]pyrazin-8-yl)oxy)phenyl)urea]",+,≥ 75,
"CSc1cc(Oc2ccnc3c2CCCN3)ccc1NC(=O)Nc1cc(C(C)(C)C)nn1-c1ccccc1 [(be), 1-(3-(tert-butyl)-1-phenyl-1H-pyrazol-5-yl)-3-(2-(methylthio)-4-((5,6,7,8-tetrahydro-1,8-naphthyridin-4-yl)oxy)phenyl)urea]",++,≥ 75,500 to 1000
"CNC(=O)c1cc(Oc2ccc(NC(=O)Nc3cc(C(C)(C)C)nn3-c3ccc4ncccc4c3)c3ccccc23)ccn1 [(bf), 4-((4-(3-(3-(tert-butyl)-1-(quinolin-6-yl)-1H-pyrazol-5-yl)ureido)naphthalen-1-yl)oxy)-N-methylpicolinamide]",+,≥ 75,
"CSc1cc(Oc2ccnc3[nH]c(=O)cnc23)ccc1NC(=O)Nc1cc(C(C)(C)C)nn1CCN(C)C [(bg), 1-(3-(tert-butyl)-1-(2-(dimethylamino)ethyl)-1H-pyrazol-5-yl)-3-(2-(methylthio)-4-((3-oxo-3,4-dihydropyrido[2,3-b]pyrazin-8-yl)oxy)phenyl)urea]",++,≥ 75,≥ 5000
"CSc1cc(Oc2ccnc3[nH]c(=O)cnc23)ccc1NC(=O)Nc1cc(C(C)(C)C)nn1CCCN1CCOCC1 [(bh), 1-(3-(tert-butyl)-1-(3-morpholinopropyl)-1H-pyrazol-5-yl)-3-(2-(methylthio)-4-((3-oxo-3,4-dihydropyrido[2,3-b]pyrazin-8-yl)oxy)phenyl)urea]",++,≥ 75,
"CSc1cc(Oc2ccnc(NC(=O)OC(C)(C)C)c2)ccc1NC(=O)Nc1cc(C(C)(C)C)nn1-c1ccccc1 [(bi), tert-butyl N-[4-{4-[(5-tert-butyl-2-phenyl-pyrazol-3-yl)carbamoylamino]-3-methylsulfanyl-phenoxy}-2-pyridyl]carbamate]",++,≥ 75,
"CSc1cc(Oc2ccnc(N)c2)ccc1NC(=O)Nc1cc(C(C)(C)C)nn1-c1ccccc1.Cl [(bj), 1-(4-((2-aminopyridin-4-yl)oxy)-2-(methylthio)phenyl)-3-(3-(tert-butyl)-1-phenyl-1H-pyrazol-5-yl)urea hydrochloride]",++,≥ 75,
